# From publication PMC10794144, “A novel antibiotic class targeting the lipopolysaccharide transporter” (Nature, 2024)
# Assays:
# A. baumannii = experiment: microbe, parasite or virus in culture; conditions: for RO7223280 MIC 80%: read at 80%; for RO7223280 MIC 100%: read at 100%
# Summary of the method: (§1)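 CLSI broth microdilution (M07/M100); inoculum from 0.5 McFarland suspension diluted in CAMHB; MIC = lowest concentration with no visible growth or where OD600 stops falling.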
# E. coli ATCC 25922 = experiment: microbe, parasite or virus in culture; conditions: for RO7223280 MIC 100%: E. coli ATCC 25922, read at 100%
# Summary of the method: as §1
# [1] = A. baumannii ROB08707, Study LGC299544
# [2] = A. baumannii ROB08707, Study LGC308175
# [3] = A. baumannii ROB08708, Study LGC296813
# [4] = A. baumannii ROB08708, Study LGC299544
# [5] = A. baumannii ROB08708, Study LGC308175
# [6] = A. baumannii ROB08709, Study LGC296813
# [7] = A. baumannii ROB08709, Study LGC299544
# [8] = A. baumannii ROB08709, Study LGC308175
# [9] = A. baumannii ROB08710, Study LGC296813
# [10] = A. baumannii ROB08710, Study LGC299544
# [11] = A. baumannii ROB08710, Study LGC308175
compound,measurement,setting,value
CN1C(=O)[C@H](CCCCN)NC(=O)[C@H](CCCN)NCc2cccnc2Sc2cccc(-c3ccc(C(=O)O)cc3)c2CNC(=O)[C@@H]1Cc1c[nH]c2ccccc12 [zosurabalpin],RO7223280 MIC 80%,A. baumannii; [1],0.12 µg/mL
same,RO7223280 MIC 100%,A. baumannii; [1],0.12 µg/mL
same,RO7223280 MIC 80%,A. baumannii; [2],0.12 µg/mL
same,RO7223280 MIC 100%,A. baumannii; [2],0.12 µg/mL
same,RO7223280 MIC 80%,A. baumannii; [3],0.25 µg/mL
same,RO7223280 MIC 100%,A. baumannii; [3],0.25 µg/mL
same,RO7223280 MIC 80%,A. baumannii; [4],0.12 µg/mL
same,RO7223280 MIC 100%,A. baumannii; [4],>64 µg/mL
same,RO7223280 MIC 80%,A. baumannii; [5],0.12 µg/mL
same,RO7223280 MIC 100%,A. baumannii; [5],>64 µg/mL
same,RO7223280 MIC 80%,A. baumannii; [6],0.25 µg/mL
same,RO7223280 MIC 100%,A. baumannii; [6],0.25 µg/mL
same,RO7223280 MIC 80%,A. baumannii; [7],0.25 µg/mL
same,RO7223280 MIC 100%,A. baumannii; [7],>64 µg/mL
same,RO7223280 MIC 80%,A. baumannii; [8],0.25 µg/mL
same,RO7223280 MIC 100%,A. baumannii; [8],>64 µg/mL
same,RO7223280 MIC 80%,A. baumannii; [9],0.25 µg/mL
same,RO7223280 MIC 100%,A. baumannii; [9],>64 µg/mL
same,RO7223280 MIC 80%,A. baumannii; [10],0.25 µg/mL
same,RO7223280 MIC 100%,A. baumannii; [10],>64 µg/mL
same,RO7223280 MIC 80%,A. baumannii; [11],0.25 µg/mL
same,RO7223280 MIC 100%,A. baumannii; [11],>64 µg/mL
same,MIC90,"A. baumannii; Acinetobacter baumannii, 10 MDR isolates, CAMHB, MCPs read at 80% growth inhibition",0.25 µg/mL
same,MIC,"A. baumannii; Acinetobacter baumannii, ACC00445, CAMHB, MCPs read at 80% inhibition",0.12 µg/mL
same,MIC,"A. baumannii; Acinetobacter baumannii, ACC00535, CAMHB, MCPs read at 80% inhibition",0.12 µg/mL
same,MIC,"A. baumannii; Acinetobacter baumannii, ACC01073, CAMHB, MCPs read at 80% inhibition",1 µg/mL
same,MIC,"A. baumannii; Acinetobacter baumannii, ACC01077, CAMHB, MCPs read at 80% inhibition",0.12 µg/mL
same,MIC,"A. baumannii; Acinetobacter baumannii, ACC01085 / AR0307, CAMHB, MCPs read at 80% inhibition",0.5 µg/mL
same,MIC,"A. baumannii; Acinetobacter baumannii, ATCC17978, ATCC 17978, CAMHB, MCPs read at 80% inhibition",≤ 0.06 µg/mL
same,MIC,"A. baumannii; Acinetobacter baumannii, ATCC17978, ATCC 17978, CAMHB, one replicate, MCPs read at 80% growth inhibition",≤ 0.06 µg/mL
same,MIC,"A. baumannii; Acinetobacter baumannii, ATCC19606, ATCC 19606, CAMHB, MCPs read at 80% growth inhibition",0.25 µg/mL
same,MIC,"A. baumannii; Acinetobacter baumannii, ATCC19606, ATCC 19606, CAMHB, MCPs read at 80% inhibition",0.12 µg/mL
same,MIC,"A. baumannii; Acinetobacter baumannii, ATCCBAA747, ATCC BAA-747, CAMHB, MCPs read at 80% inhibition",≤ 0.06 µg/mL
same,MIC,"A. baumannii; Acinetobacter baumannii, ROB08701, CAMHB, MCPs read at 80% inhibition",0.25 µg/mL
same,MIC,"A. baumannii; Acinetobacter baumannii, ROB08702, CAMHB, MCPs read at 80% inhibition",0.12 µg/mL
same,MIC,"A. baumannii; Acinetobacter baumannii, ROB08703, CAMHB, MCPs read at 80% inhibition",0.5 µg/mL
same,MIC,"A. baumannii; Acinetobacter baumannii, ROB08704, CAMHB, MCPs read at 80% inhibition",0.25 µg/mL
same,MIC,"A. baumannii; Acinetobacter baumannii, ROB08705, CAMHB, MCPs read at 80% inhibition",0.25 µg/mL
same,MIC,"A. baumannii; Acinetobacter baumannii, ROB08706, CAMHB, MCPs read at 80% inhibition",0.5 µg/mL
same,MIC,"A. baumannii; Acinetobacter baumannii, ROB08707, CAMHB, MCPs read at 80% inhibition",≤ 0.06 µg/mL
same,MIC,"A. baumannii; Acinetobacter baumannii, ROB08708, CAMHB, MCPs read at 80% inhibition",0.12 µg/mL
same,MIC,"A. baumannii; Acinetobacter baumannii, ROB08709, CAMHB, MCPs read at 80% inhibition",≤ 0.06 µg/mL
same,MIC,"A. baumannii; Acinetobacter baumannii, ROB08710, CAMHB, MCPs read at 80% inhibition",0.12 µg/mL
same,RO7223280 MIC 100%,E. coli ATCC 25922; Study LGC296813,>64 µg/mL
same,RO7223280 MIC 100%,E. coli ATCC 25922; Study LGC299544,>64 µg/mL
same,RO7223280 MIC 100%,E. coli ATCC 25922; Study LGC308175,>64 µg/mL
same,MIC,"E. coli ATCC 25922; Escherichia coli, ATCC25922",> 64 µg/mL
